# Tests used:
# [1] = (§1) MMV: Anti-babesial activity assay. Parasite pRBCs at 1% parasitemia were cultivated in 100 ul with 96-well plates at 2.5% and 5% hematocrits. The parasites were cultivated in triplicate for 4 days without replacement of the medium for each concentration of the compound.; assay type: functional, Babesia bovis
# [2] = as §1; assay type: functional, Babesia caballi
# [3] = as §1; assay type: functional, Babesia equi
# [4] = as §1; assay type: functional, Babesia bigemina
SMILES,IC50 [1] [µM],IC50 [2] [µM],IC50 [3] [µM],IC50 [4] [µM]
O=C(Nc1ccc(Cl)c(Cl)c1)Nc1ccc(Cl)c(Cl)c1,0.59,4.91,0.21,2.95
COc1ccc(C2c3ccc4ccccc4c3Oc3ncn(CCCN(C)C)c(=N)c32)cc1 (stereo not given),0.052,7.26,0.49,0.033
N=c1n(CCN2CCCCC2)c2ccccc2n1CC(=O)c1ccc(Cl)c(Cl)c1,0.077,3.73,15.9,0.066
Nc1nc(Nc2cccc(F)c2)nc2ccccc12,0.73,6.08,0.79,7.65
COc1ccc(/C=C2/SC(=Nc3ccccc3)NC2=O)cc1,4.91,13.3,0.1,1
COc1ccc(-c2nc(N3CCN(C(=O)C4CCCCC4)CC3)c3c4c(sc3n2)CCCC4)cc1,1.07,11.9,8.36,1
Cc1sc(NC(=O)c2ccco2)c(C(c2cccnc2)N2CCC(Cc3ccccc3)CC2)c1C (stereo not given),0.086,0.45,17.5,0.073
CCOC(=O)c1c(C)n(-c2ccccc2)c2ccc(OC(=O)c3cc(OC)c(OC)c(OC)c3)cc12,18.6,5.9,16.5,12.6
COc1cc(C(=O)Nc2nc3c(cc4c5c(cccc53)CC4)s2)cc(OC)c1OC,3.08,5,4.41,8.04
COc1ccc(CCN2C(=O)c3[nH]nc(-c4cc(Cl)c(C)cc4O)c3C2c2ccccc2F)cc1 (stereo not given),5.9,9.01,7.65,0.63
N#Cc1nc(Cc2cccc3ccccc23)oc1N1CCN(C(c2ccccc2)c2ccccc2)CC1,16.1,5.09,12,19.8
O=C(NNc1cc(N2CCCC2)nc(N2CCCC2)n1)c1ccccc1,4.58,5.5,5.3,13.9
COC(=O)c1ccc(Cl)c2c1C1C=CCC1C(c1cccc3ccccc13)N2 (stereo not given),15.7,12,17.8,10
COc1ccc(C2c3ccc4ccccc4c3Oc3ncn(CCCn4ccnc4)c(=N)c32)cc1OC (stereo not given),6.3,0.41,5.68,0.1
CN(N=O)C1=C(NC2CCCCC2)C(=O)c2ccccc2C1=O,0.59,0.41,0.76,4.13
O=C(CCc1ccccc1)c1ccccc1OCC(O)CN1CCCCC1 (stereo not given),4.52,7.26,10.7,5.69
OC1=C2C(=Nc3ccccc3SC2c2ccccc2)c2ccccc21 (stereo not given),0.1,8.77,0.1,0.5
COc1cc(C(=O)Nc2ccc(-c3nc4ccccc4[nH]3)cc2)cc(OC)c1OC,13.3,11,15.9,1
Cc1ccc(C(=O)c2oc3ccc4c(C)cc(=O)oc4c3c2C)cc1,0.07,9.18,0.054,0.065
CCCCCCc1cc2cc(-c3csc(C=Cc4ccccc4)n3)c(=O)oc2cc1O,5.92,10,6.86,25

SMILES,IC50 [1] [µM],IC50 [2] [µM],IC50 [3] [µM],IC50 [4] [µM]
O=C(CCl)NCCOc1ccc(Cl)cc1Cl,16.5,12,16.5,13.1
Oc1ccc(-c2nc(-c3ccc4oc5ccc(-c6[nH]c(-c7ccc(O)cc7)nc6-c6ccccc6)cc5c4c3)c(-c3ccccc3)[nH]2)cc1,0.059,10,0.1,1.39
COc1ccc(CNC(=O)c2cc3c(=O)n4ccccc4nc3n(CCc3ccccc3)c2=N)cc1,0.1,0.686,4.74,4.27
O=C(NC1CCN(Cc2ccccc2)CC1)c1cc(C(=O)NC2CCN(Cc3ccccc3)CC2)cc(C(=O)NC2CCN(Cc3ccccc3)CC2)c1,0.06,5.3,15.2,0.077
CC(=O)c1sc(NC(=O)Nc2ccc(C)cc2C)nc1C,11.1,5.3,7.26,10
COc1ccc(-c2cn3c(C(=O)Nc4ccccc4Cl)c(-c4ccccc4)c4c3n2CCCC4)cc1,0.77,12.5,1,21.6
Cn1c(C(=O)c2cccc3ccccc23)nc2ccccc21,3.73,0.81,10,12
CCN(CC)CCNc1ccnc2cc3ccccc3cc12,7.72,5.09,5.69,3.25
CCOc1ccc2nc(C)cc(Nc3ccc(N(C)C)cc3)c2c1,0.056,6.08,15.5,0.065
COc1ccc(C=C2SC(Nc3ccc(F)cc3)=NC2=O)c(OC)c1,0.1,0.836,4.61,0.082
Oc1ccc2ccccc2c1CNc1nc2ccccc2[nH]1,6.81,3.04,4.37,10
O=C(Nc1ccc(-c2nc3ccccc3[nH]2)cc1)c1ccc(Cl)c(Cl)c1,18.5,3.86,6.24,4.13
O=C1c2ccc3c4c(ccc(c24)C(=O)N1CCCCO)C(=O)N(CCCCO)C3=O,0.6,0.53,0.67,3.34
O=C(Nc1ccc(-c2nc3cc(NC(=O)c4ccc(Cl)cc4)ccc3[nH]2)cc1)c1ccc(Cl)cc1,17,9.1,13.3,5.09
OCCNc1nc(Nc2ccc(Cl)c(Cl)c2)nc2ccccc12,0.52,0.1,1.39,3.34
Nc1ccc(-c2nc3cc(Oc4ccc(Oc5ccc6[nH]c(-c7ccc(N)cc7)nc6c5)cc4)ccc3[nH]2)cc1,10,4.52,3.86,18.9
CCOC(=O)c1cnc2ccc(OC)cc2c1Nc1ccc(N2CCN(C)CC2)cc1,0.061,8.25,10,1
Cc1cc(N(C)C)nc(Nc2ccc(NC(=O)Nc3ccccc3)cc2)n1,0.078,14.6,12.1,0.06
COc1ccccc1C(=O)ON=C(N)Cc1cccc2ccccc12,22.4,6.86,7.65,19.8
COc1ccc(C(=O)C(CCC(CNC(C)(C)C)C(=O)c2ccc(OC)cc2)CNC(C)(C)C)cc1 (stereo not given),0.57,4.68,0.17,2.95

SMILES,IC50 [1] [µM],IC50 [2] [µM],IC50 [3] [µM],IC50 [4] [µM]
CCOc1cc2c(cc1OCC)C(c1cc(Cl)ccc1O)NCC2 (stereo not given),1.06,0.33,1.4,10
COc1ccc(C2C(C(=O)Nc3cccc(OC)c3)c3ccccc3C(=O)N2C2CCCCC2)cc1 (stereo not given),10,1,12.5,0.22
c1ccc2c(NCCc3c[nH]c4ccccc34)c3ccccc3nc2c1,0.71,0.21,1.39,1.03
COc1cc(C(=O)ON=C(N)Cc2cccc3ccccc23)cc(OC)c1OC,13.3,5.3,10.1,12.5
CN1C=C(c2ccc3ccccc3n2)C(c2c[nH]c3ccccc23)c2ccccc21 (stereo not given),5.9,0.304,5.12,4.52
Oc1c(C(Nc2ccccn2)c2cccc(Oc3ccccc3)c2)ccc2cccnc12 (stereo not given),6.72,10,12.6,3.34
COc1cc(-c2nc(-c3ccccc3)c(-c3ccccc3)[nH]2)cc(OC)c1O,8.03,21.7,12,3.34
OC(CNC1CCCCC1)Cn1c2ccc(I)cc2c2cc(I)ccc21 (stereo not given),1.3,3.73,2.17,16.5
CCn1c2c(c(=N)c3c1CCC3)CCCC2,0.052,0.44,15,0.082
Cc1ccc2c(C)nc(Nc3nc(C)cc(-c4ccccc4)n3)nc2c1,16.8,4.13,14.4,7.95
c1ccc(CNc2nc(Nc3ccccc3)nc3ccccc23)cc1,4.06,3.73,2.12,10
Oc1ccc(Br)cc1CN1CCN(Cc2ccc(Cl)cc2)CC1,8.61,3.86,2.95,25
COc1cc2c3cc1Oc1c(OC)c(OC)cc4c1C(Cc1ccc(O)c(c1)Oc1ccc(cc1)CC3N(C)CC2)N(C)CC4 (stereo not given),0.068,3.86,0.26,10
CCCCCCC(O)(c1ccc(F)cc1)C(CN1CCOCC1)c1ccccc1 (stereo not given),2.63,0.29,10,9.87
Cc1ccc(C)c(-c2csc(Nc3ccc(C)c(C)c3)n2)c1,0.06,0.71,0.14,8.05
CCOc1c(Br)cc(C2C(C(=O)OC)=CN(C)C=C2C(=O)OC)cc1OC,0.072,11.9,9.18,0.25
CC1CC2=C(CC1CNCCCN(C)C)C(C)(C)CCC2 (stereo not given),0.58,5.9,0.13,2.12
CN(C)c1ccc(N=Cc2ccc(N3CCOCC3)cc2)cc1,0.068,0.043,0.63,0.068
CCOC(=O)c1cnc2ccc(OC)cc2c1NCc1ccccc1,0.72,5.9,14.1,1
CCCn1c(=N)c(C(=O)NC2CCCCC2)cc2c(=O)n3cccc(C)c3nc21,5.7,6.08,2.95,13.3
